Here are results for 22 compounds from patent US20260285855A1, “HETEROARYL DERIVATIVES AS DDRS INHIBITORS” (CHIESI FARMACEUTICI S.P.A., priority 2023, published 2026).

The target in one assay is T1, DDR1 (Homo sapiens, UniProt Q08345).
T1 construct: purchased Carna Biosciences
Kind of assay: LanthaScreen Europium Kinase Binding assay, DDR1. The note with it: 5 nM DDR1, 20 nM Kinase Tracer 178, 1 h at rt; Ki from IC50 by Cheng-Prusoff; read-out: Ki DDR1. The protocol:
(§1) DDR1 and DDR2 binding assays were performed using Life Technologies LanthaScreen™ Europium Kinase Binding assay. […] IC50 values were determined in GraphPad Prism 7.0 software, using 4 parameter model: log (inhibitor) vs. response. IC50 values were converted in Ki using the Cheng-Prusoff equation (Ki-IC50/(1+ [Tracer]/Kd).
In general terms: Time-resolved FRET reads energy transfer from a long-lived donor to a nearby acceptor.

In another assay the target is T2, DDR2 (Homo sapiens, UniProt Q16832).
T2 construct: purchased Life Technologies
T2 sequence (Q16832 22-855): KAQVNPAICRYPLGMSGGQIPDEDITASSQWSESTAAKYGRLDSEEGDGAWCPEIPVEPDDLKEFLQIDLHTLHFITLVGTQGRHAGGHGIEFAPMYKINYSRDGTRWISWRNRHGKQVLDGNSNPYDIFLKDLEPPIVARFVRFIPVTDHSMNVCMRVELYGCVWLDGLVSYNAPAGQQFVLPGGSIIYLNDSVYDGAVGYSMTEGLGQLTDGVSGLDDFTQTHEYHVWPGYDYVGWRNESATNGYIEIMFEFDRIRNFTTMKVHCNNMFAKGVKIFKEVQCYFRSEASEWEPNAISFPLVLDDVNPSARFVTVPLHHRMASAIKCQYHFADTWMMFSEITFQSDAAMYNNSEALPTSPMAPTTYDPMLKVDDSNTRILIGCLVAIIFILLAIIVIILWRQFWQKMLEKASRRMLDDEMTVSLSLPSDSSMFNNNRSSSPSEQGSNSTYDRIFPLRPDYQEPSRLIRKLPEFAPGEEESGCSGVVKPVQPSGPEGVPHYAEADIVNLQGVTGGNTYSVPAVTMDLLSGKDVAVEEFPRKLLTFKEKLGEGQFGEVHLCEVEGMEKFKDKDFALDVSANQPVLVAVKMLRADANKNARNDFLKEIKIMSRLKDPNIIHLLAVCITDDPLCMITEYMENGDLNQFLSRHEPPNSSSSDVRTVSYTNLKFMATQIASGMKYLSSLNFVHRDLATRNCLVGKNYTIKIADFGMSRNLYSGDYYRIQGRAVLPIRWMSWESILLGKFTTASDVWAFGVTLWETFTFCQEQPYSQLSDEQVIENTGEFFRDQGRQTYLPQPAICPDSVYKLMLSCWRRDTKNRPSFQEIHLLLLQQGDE
As to the kind of experiment: LanthaScreen Europium Kinase Binding assay, DDR2. The note with it: 5 nM DDR2, 10 nM Kinase Tracer 178, 1 h at rt; Ki from IC50 by Cheng-Prusoff; read-out: Ki DDR2. The protocol: as §1

SMILES strings stand for the structures. pKi: −log10 of the molar value.

T1 sequence (Q08345 19-913): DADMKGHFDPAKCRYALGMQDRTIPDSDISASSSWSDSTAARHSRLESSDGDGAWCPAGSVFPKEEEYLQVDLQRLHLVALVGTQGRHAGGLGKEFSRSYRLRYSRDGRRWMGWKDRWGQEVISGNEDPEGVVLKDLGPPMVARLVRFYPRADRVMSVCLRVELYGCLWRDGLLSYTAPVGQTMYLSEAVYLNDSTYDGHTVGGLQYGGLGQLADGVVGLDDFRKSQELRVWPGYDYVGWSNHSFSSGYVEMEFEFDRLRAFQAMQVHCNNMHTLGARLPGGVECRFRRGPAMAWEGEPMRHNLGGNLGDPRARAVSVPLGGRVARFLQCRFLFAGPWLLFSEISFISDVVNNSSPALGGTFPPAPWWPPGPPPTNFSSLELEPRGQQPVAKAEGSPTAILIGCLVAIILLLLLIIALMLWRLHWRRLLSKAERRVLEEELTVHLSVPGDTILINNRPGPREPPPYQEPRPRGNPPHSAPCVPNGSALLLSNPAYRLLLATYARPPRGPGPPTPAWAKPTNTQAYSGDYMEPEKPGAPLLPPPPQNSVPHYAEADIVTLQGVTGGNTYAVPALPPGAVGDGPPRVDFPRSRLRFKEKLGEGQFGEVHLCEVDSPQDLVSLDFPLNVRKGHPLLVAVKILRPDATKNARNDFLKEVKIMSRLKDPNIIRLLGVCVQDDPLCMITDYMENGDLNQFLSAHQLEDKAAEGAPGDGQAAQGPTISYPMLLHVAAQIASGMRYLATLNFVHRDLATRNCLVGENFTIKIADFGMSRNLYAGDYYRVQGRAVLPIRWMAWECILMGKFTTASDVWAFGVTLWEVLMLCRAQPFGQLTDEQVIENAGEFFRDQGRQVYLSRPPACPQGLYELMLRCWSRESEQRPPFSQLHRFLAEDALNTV

The term pKi denotes the Ki on a negative log10 scale, so that one unit is a factor of ten. Regarding `Cn1ccn2ncc(C(=O)N3CC4(CC(NC(=O)Nc5cccc(S(F)(F)(F)(F)F)c5)C4)C3)c12` [Example 42, 1-(2-(1-methyl-1H-imidazo[1,2-b]pyrazole-7-carbonyl)-2-azaspiro[3.3]heptan-6-yl)-3-(3-(pentafluoro-16-sulfaneyl)phenyl)urea], the pKi is above 8.30 on DDR1 and 7.60 to 8.30 on DDR2.

In the case of `O=C(CC1CC2(C1)CN(C(=O)c1cnn3ccsc13)C2)Nc1cccc(C(F)(F)F)c1` [Example 27, 2-(2-(pyrazolo[5,1-b]thiazole-7-carbonyl)-2-azaspiro[3.3]heptan-6-yl)-N-(3-(trifluoromethyl)phenyl)acetamide], the pKi at DDR1 and at DDR2 was above 8.30 throughout.

Turning to `CN(C(=O)Nc1cc(C(F)(F)F)cnn1)C1CC2(C1)CN(C(=O)c1cnn3ccccc13)C2` [Example 259, 1-methyl-1-(2-(pyrazolo[1,5-a]pyridine-3-carbonyl)-2-azaspiro[3.3]heptan-6-yl)-3-(5-(trifluoromethyl)pyridazin-3-yl)urea], the negative logarithm of the Ki (pKi) was above 8.30 at DDR1 and 7.00 to 7.60 at DDR2.

In the case of `Cn1ccn2ncc(C(=O)N3CC4(CC(NC(=O)Nc5cncc(C(F)(F)F)c5)C4)C3)c12` [Example 37, 1-(2-(1-methyl-1H-imidazo[1,2-b]pyrazole-7-carbonyl)-2-azaspiro [3.3]heptan-6-yl)-3-(5-(trifluoromethyl)pyridin-3-yl)urea], the pKi on DDR1 was above 8.30; on DDR2 it was 7.60 to 8.30.

Turning to `Cn1ccn2ncc(C(=O)N3CC4(CC(NC(=O)Nc5cc(C(F)(F)F)ccc5OCCN5CCOCC5)C4)C3)c12` [Example 56, 1-(2-(1-methyl-1H-imidazo[1,2-b]pyrazole-7-carbonyl)-2-azaspiro[3.3]heptan-6-yl)-3-(2-(2-morpholinoethoxy)-5-(trifluoromethyl)phenyl)urea], the results for the pKi on DDR1 and on DDR2 were above 8.30 and 7.60 to 8.30, respectively.

On to `COc1ccc(OC(F)(F)F)cc1NC(=O)NC1CC2(C1)CN(C(=O)c1ncnc3ccsc13)C2` [Example 62, 1-(2-methoxy-5-(trifluoromethoxy)phenyl)-3-(2-(thieno[3,2-d]pyrimidine-4-carbonyl)-2-azaspiro[3.3]heptan-6-yl)urea], for which the results for the negative-log Ki (pKi) on DDR1 and on DDR2 were above 8.30 and 7.60 to 8.30, respectively.

In the case of `[2H]C([2H])([2H])n1ccn2ncc(C(=O)N3CC4(CC(CC(=O)Nc5cc(OC(F)(F)F)ccn5)C4)C3)c12` [Example 301, 2-(2-(1-(methyl-d3)-1H-imidazo[1,2-b]pyrazole-7-carbonyl)-2-azaspiro[3.3]heptan-6-yl)-N-(4-(trifluoromethoxy)pyridin-2-yl)acetamide], the negative-log Ki (pKi) on DDR1 and at DDR2 was above 8.30 each time.

Regarding `O=C(CC1CC2(C1)CN(C(=O)c1ccnc3ccsc13)C2)Nc1cccc(C(F)(F)F)c1` [Example 140, 2-(2-(thieno[3,2-b]pyridine-7-carbonyl)-2-azaspiro[3.3]heptan-6-yl)-N-(3-(trifluoromethyl)phenyl)acetamide], the pKi at DDR1 and at DDR2 was above 8.30 in each case.

On to `O=C(Nc1cncc(C(F)(F)F)c1)NC1CC2(C1)CN(C(=O)c1ccnc3[nH]ncc13)C2` [Example 159, 1-(2-(1H-pyrazolo[3,4-b]pyridine-4-carbonyl)-2-azaspiro[3.3]heptan-6-yl)-3-(5-(trifluoromethyl)pyridin-3-yl)urea], for which the pKi at DDR1 is above 8.30; on DDR2, 7.60 to 8.30.

As to `CC(C)(C)c1cc(NC(=O)NC2CC3(C2)CN(C(=O)c2cnn4ccncc24)C3)no1` [Example 18, 1-(5-(tert-butyl)isoxazol-3-yl)-3-(2-(pyrazolo[1,5-a]pyrazine-3-carbonyl)-2-azaspiro[3.3]heptan-6-yl)urea], the pKi is 7.60 to 8.30 at DDR1 and 7.00 to 7.60 on DDR2.

As for `Cc1c(F)cc(NC(=O)N(C)C2CC3(C2)CN(C(=O)c2cnn4ccn(C)c24)C3)cc1C(F)(F)F` [Example 265, 3-(3-fluoro-4-methyl-5-(trifluoromethyl)phenyl)-1-methyl-1-(2-(1-methyl-1H-imidazo[1,2-b]pyrazole-7-carbonyl)-2-azaspiro[3.3]heptan-6-yl)urea], the pKi on DDR1 and on DDR2 was above 8.30 in each case.

For `Cn1ccc2ncnc(C(=O)N3CC4(CC(NC(=O)Nc5cccc(C(F)(F)F)c5)C4)C3)c21` [Example 160, 1-(2-(5-methyl-5H-pyrrolo[3,2-d]pyrimidine-4-carbonyl)-2-azaspiro[3.3]heptan-6-yl)-3-(3-(trifluoromethyl)phenyl)urea], the pKi on DDR1 and on DDR2 was 7.60 to 8.30 each time.

As for `O=C(Nc1cccc(C(F)(F)F)c1)NC1CC2(C1)CN(C(=O)c1cnn3ccn(CCO)c13)C2` [Example 102, 1-(2-(1-(2-hydroxyethyl)-1H-imidazo[1,2-b]pyrazole-7-carbonyl)-2-azaspiro[3.3]heptan-6-yl)-3-(3-(trifluoromethyl)phenyl)urea], the pKi at DDR1 was above 8.30; at DDR2 it was 7.60 to 8.30.

In the case of `CN(C(=O)Nc1cc(C(F)(F)F)ccn1)C1CC2(C1)CN(C(=O)c1cnn3ccsc13)C2` [Example 217, 1-methyl-1-(2-(pyrazolo[5,1-b]thiazole-7-carbonyl)-2-azaspiro[3.3]heptan-6-yl)-3-(4-(trifluoromethyl)pyridin-2-yl)urea], the figures for the pKi on DDR1 and on DDR2 were above 8.30 and 7.60 to 8.30, respectively.

Regarding `O=C(Nc1cccc(CC(F)(F)F)c1)NC1CC2(C1)CN(C(=O)c1cnn3ccsc13)C2` [Example 31, 1-(2-(pyrazolo[5,1-b]thiazole-7-carbonyl)-2-azaspiro[3.3]heptan-6-yl)-3-(3-(2,2,2-trifluoroethyl)phenyl)urea], the pKi on DDR1 and on DDR2 was above 8.30 throughout.

With `CN(C(=O)Nc1cccc(C(F)(F)C(F)(F)F)c1)C1CC2(C1)CN(C(=O)c1cnn3ccn(C)c13)C2` [Example 117, 1-methyl-1-(2-(1-methyl-1H-imidazo[1,2-b]pyrazole-7-carbonyl)-2-azaspiro[3.3]heptan-6-yl)-3-(3-(perfluoroethyl)phenyl) urea], the pKi on DDR1 and at DDR2 was above 8.30 in each case.

`Cn1ccn2ncc(C(=O)N3CC4(CC(OC(=O)Nc5cc(OC(F)(F)F)ccn5)C4)C3)c12` [Example 294, 2-(1-methyl-1H-imidazo[1,2-b]pyrazole-7-carbonyl)-2-azaspiro[3.3]heptan-6-yl(4-(trifluoromethoxy)pyridin-2-yl)carbamate]: the pKi on DDR1 and on DDR2 was above 8.30 each time.

With `CN(C(=O)Nc1cc(F)cc(C(F)(F)F)c1)C1CC2(C1)CN(C(=O)c1cnn3ccsc13)C2` [Example 60, 3-(3-fluoro-5-(trifluoromethyl)phenyl)-1-methyl-1-(2-(pyrazolo[5,1-b]thiazole-7-carbonyl)-2-azaspiro[3.3]heptan-6-yl)urea], the pKi at DDR1 and on DDR2 was above 8.30 throughout.

As for `CN(C(=O)Nc1cc(C(F)(F)F)cc(C(F)(F)F)c1)C1CC2(C1)CN(C(=O)c1cnn3ccn(C)c13)C2` [Example 257, 3-(3,5-bis(trifluoromethyl)phenyl)-1-methyl-1-(2-(1-methyl-1H-imidazo[1,2-b]pyrazole-7-carbonyl)-2-azaspiro[3.3]heptan-6-yl)urea], the pKi at DDR1 is above 8.30; on DDR2 it was 7.60 to 8.30.

With `CN(C(=O)Nc1cc(C(F)F)ccn1)C1CC2(C1)CN(C(=O)c1cnn3ccn(C)c13)C2` [Example 164, 3-(4-(difluoromethyl)pyridin-2-yl)-1-methyl-1-(2-(1-methyl-1H-imidazo[1,2-b]pyrazole-7-carbonyl)-2-azaspiro[3.3]heptan-6-yl)urea], the pKi at DDR1 was above 8.30; on DDR2, 7.00 to 7.60.

For `CN(C(=O)Nc1cccc(C(F)(F)F)c1)C1CC2(C1)CN(C(=O)c1ccnc3[nH]ncc13)C2` [Example 128, 1-(2-(1H-pyrazolo[3,4-b]pyridine-4-carbonyl)-2-azaspiro[3.3]heptan-6-yl)-1-methyl-3-(3-(trifluoromethyl)phenyl)urea], the pKi at DDR1 is above 8.30; at DDR2, 7.60 to 8.30.

Turning to `COc1ccc(CC(F)(F)F)cc1NC(=O)NC1CC2(C1)CN(C(=O)c1cnn3ccn(C)c13)C2` [Example 152, 1-(2-methoxy-5-(2,2,2-trifluoroethyl)phenyl)-3-(2-(1-methyl-1H-imidazo[1,2-b]pyrazole-7-carbonyl)-2-azaspiro[3.3]heptan-6-yl)urea], the pKi on DDR1 was above 8.30; on DDR2, 7.60 to 8.30.
